Reference: patent publication US8685977B2, “Chemical compounds” (Pfizer Limited, priority 2010, dated 2014)

The compounds below were run against T1, Nav1.7 (or SCN9A) channel (Homo sapiens, UniProt Q15858) (assay: Nav1.7 Ionworks Quattro automated electrophysiology assay (HEK cells expressing hSCN9A)). Settings: Ionworks assay (IW), read-out: Nav1.7 EIC50 (IW).
T1 construct: expressed in transfected cells
Format: cell-based
Method: The ability of the compounds of formula (I) to block the Nav1.7 (or SCN9A) channel was measured using the assays described below. Human Embryonic Kidney (HEK) cells were transfected with an hSCN9A construct using lipofectamine reagent (Invitrogen), using standard techniques. Cells stably expressing the hSCN9A constructs were identified by their resistance to G-418 (400 μg/ml). Clones were screened for expression using the whole-cell voltage-clamp technique. HEK cells stably transfected with hSCN9A were maintained in DMEM medium supplemented with 10% heat-inactivated fetal bovine serum and 400 μg/ml G-418 in an incubator at 37° C. with a humidified atmosphere of 10% CO2. For HTS, cells were harvested from flasks by trypsinization and replated in an appropriate multi-well plate (typically 96 or 384 wells/plate) such that confluence would be achieved within 24 hours of plating. For electrophysiological studies, cells were removed from the culture flask by brief trypsinization and re-plated at low density onto glass cover slips. Cells were typically used for electrophysiological experiments within 24 to 72 hours after plating. Electrophysiological assays were also conducted using the lonworks Quattro automated electrophysiological platform (Molecular Devices Corp). Intracellular and extracellular solutions were as described above with the following changes, 100 μg/ml amphotericin was added to the intracellular solution to perforate the membrane and allow electrical access to the cells. hSCN9A cells were grown and harvested as for PatchXpress and cells were resuspended in extracellular solution at a concentration of 3−4×10^6 cells/ml. The onboard liquid handling facility of the lonworks Quattro was used for dispensing cells and application of test compounds. A voltage protocol was then applied that comprised of a voltage step to fully inactivate the sodium channels, followed by a brief hyperpolarized recovery period to allow partial recovery from inactivation for unblocked sodium channels, followed by a test depolarized voltage step to assess magnitude of inhibition by test compound. Compound effect was determined based on current amplitude difference between the pre-compound addition and post-compound addition scans. Compounds of the Examples were tested in the assays described above and found to have the Nav1.7 EIC50 (μM) values specified in the table below. All data are derived from the PatchXpress assay unless explicitly stated otherwise.

T1 sequence (Q15858 whole entry): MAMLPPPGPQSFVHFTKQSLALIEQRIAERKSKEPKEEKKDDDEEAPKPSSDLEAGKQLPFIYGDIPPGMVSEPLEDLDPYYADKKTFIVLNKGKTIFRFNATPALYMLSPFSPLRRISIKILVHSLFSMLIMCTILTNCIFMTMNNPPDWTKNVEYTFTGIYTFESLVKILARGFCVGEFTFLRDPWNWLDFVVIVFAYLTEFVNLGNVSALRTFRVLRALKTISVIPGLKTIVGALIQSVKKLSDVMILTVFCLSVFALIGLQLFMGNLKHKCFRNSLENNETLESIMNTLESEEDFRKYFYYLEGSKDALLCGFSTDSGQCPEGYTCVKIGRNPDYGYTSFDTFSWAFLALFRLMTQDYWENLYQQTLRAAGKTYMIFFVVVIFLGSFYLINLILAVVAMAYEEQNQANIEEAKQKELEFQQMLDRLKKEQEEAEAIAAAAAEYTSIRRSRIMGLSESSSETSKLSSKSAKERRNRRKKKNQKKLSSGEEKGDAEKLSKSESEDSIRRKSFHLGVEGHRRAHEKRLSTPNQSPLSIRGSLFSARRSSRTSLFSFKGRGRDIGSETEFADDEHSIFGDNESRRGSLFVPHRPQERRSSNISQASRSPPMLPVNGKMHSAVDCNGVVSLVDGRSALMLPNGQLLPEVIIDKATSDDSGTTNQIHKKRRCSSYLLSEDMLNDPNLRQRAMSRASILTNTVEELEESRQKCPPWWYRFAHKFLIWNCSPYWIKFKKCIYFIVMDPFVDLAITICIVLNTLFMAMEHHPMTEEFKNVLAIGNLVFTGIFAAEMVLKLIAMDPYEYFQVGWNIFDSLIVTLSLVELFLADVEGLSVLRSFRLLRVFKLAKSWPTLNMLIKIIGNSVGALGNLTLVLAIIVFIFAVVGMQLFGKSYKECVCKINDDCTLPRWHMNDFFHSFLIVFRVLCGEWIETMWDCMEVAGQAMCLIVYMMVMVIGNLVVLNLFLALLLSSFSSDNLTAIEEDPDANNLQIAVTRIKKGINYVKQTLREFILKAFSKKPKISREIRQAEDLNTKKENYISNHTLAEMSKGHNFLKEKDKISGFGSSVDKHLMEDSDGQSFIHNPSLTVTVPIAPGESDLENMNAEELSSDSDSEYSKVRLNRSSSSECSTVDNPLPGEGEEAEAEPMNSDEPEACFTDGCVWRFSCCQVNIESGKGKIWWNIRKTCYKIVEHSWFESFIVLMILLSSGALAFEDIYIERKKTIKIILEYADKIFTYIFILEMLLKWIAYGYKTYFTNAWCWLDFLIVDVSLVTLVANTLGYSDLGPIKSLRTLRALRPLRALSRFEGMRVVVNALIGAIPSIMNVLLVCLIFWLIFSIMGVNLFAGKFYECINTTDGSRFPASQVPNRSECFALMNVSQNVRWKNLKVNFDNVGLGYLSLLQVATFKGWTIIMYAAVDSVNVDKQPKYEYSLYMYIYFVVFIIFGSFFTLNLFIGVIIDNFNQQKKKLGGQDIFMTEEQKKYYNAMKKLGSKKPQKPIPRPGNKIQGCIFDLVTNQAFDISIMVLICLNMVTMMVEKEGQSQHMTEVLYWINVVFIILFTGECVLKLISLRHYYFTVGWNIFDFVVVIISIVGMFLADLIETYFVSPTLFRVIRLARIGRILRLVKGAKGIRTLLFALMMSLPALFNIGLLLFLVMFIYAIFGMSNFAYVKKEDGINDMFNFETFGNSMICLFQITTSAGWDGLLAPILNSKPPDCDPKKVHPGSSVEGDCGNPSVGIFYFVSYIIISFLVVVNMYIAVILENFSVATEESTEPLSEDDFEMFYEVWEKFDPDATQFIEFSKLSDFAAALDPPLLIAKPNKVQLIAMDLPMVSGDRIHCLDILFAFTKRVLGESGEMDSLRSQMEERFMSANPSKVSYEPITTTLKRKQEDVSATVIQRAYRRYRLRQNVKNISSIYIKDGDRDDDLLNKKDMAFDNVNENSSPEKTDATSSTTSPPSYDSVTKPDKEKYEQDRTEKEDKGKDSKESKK

| IC50 | Structure (SMILES) |
| --- | --- |
| 28.2 µM | CS(=O)(=O)NC(=O)c1ccc(Oc2ccccc2OC(F)(F)F)cc1 [Example 209, N-(methylsulfonyl)-4-[2-(trifluoromethoxy)phenoxy]benzamide] |
| 288 µM | CS(=O)(=O)NC(=O)c1ccc(Oc2cccc(C(F)(F)F)c2Cl)cc1 [Example 210, 4-[2-chloro-3-(trifluoromethyl)phenoxy]-N-(methylsulfonyl)benzamide] |
| 67 µM | CS(=O)(=O)NC(=O)c1ccc(Oc2ccccc2C#N)cc1 [Example 211, 4-(2-cyanophenoxy)-N-(methylsulfonyl)benzamide] |
| 300 µM | COc1c(C(=O)NS(C)(=O)=O)ccc(Oc2ccc(Cl)c(F)c2)c1F [Example 221, 4-(4-chloro-3-fluorophenoxy)-3-fluoro-2-methoxy-N-(methylsulfonyl)benzamide] |
| 300 µM | COc1c(C(=O)NS(C)(=O)=O)ccc(Oc2ccc(C)cc2)c1F [Example 226, 3-fluoro-2-methoxy-4-(4-methylphenoxy)-N-(methylsulfonyl)benzamide] |
| 36.6 µM | COc1cc(Oc2ccc(Cl)cc2)ccc1C(=O)NS(C)(=O)=O [Example 235, 4-(4-chlorophenoxy)-2-methoxy-N-(methylsulfonyl)benzamide] |
| 144 µM | COc1cc(C(=O)NS(C)(=O)=O)ccc1Oc1ccc(F)c(C(F)(F)F)c1 [Example 241, 4-[4-fluoro-3-(trifluoromethyl)phenoxy]-3-methoxy-N-(methylsulfonyl)benzamide] |
| 11.9 µM | CS(=O)(=O)NC(=O)c1ccc(Oc2ccc(C(F)(F)F)cc2)cc1C#N [Example 243, 2-cyano-N-(methylsulfonyl)-4-[4-(trifluoromethyl)phenoxy]benzamide] |
| > 323 µM | CCOc1cccc(Oc2ccc(C(=O)NS(C)(=O)=O)cc2)c1 [Example 259, 4-(3-ethoxyphenoxy)-N-(methylsulfonyl)benzamide] |
| > 323 µM | CS(=O)(=O)NC(=O)c1ccc(Oc2ccccc2C(F)(F)F)c(C#N)c1 [Example 271, 3-cyano-N-(methylsulfonyl)-4-[2-(trifluoromethyl)phenoxy]benzamide] |
| 44.8 µM | CCOc1ccccc1Oc1ccc(C(=O)NS(C)(=O)=O)cc1C#N [Example 273, 3-cyano-4-(2-ethoxyphenoxy)-N-(methylsulfonyl)benzamide] |
| 277 µM | COc1ccc(Oc2ccc(C(=O)NS(C)(=O)=O)cc2C#N)cc1 [Example 274, 3-cyano-4-(4-methoxyphenoxy)-N-(methylsulfonyl)benzamide] |
| 116 µM | Cc1ccccc1Oc1ccc(C(=O)NS(C)(=O)=O)cc1C#N [Example 275, 3-cyano-4-(2-methylphenoxy)-N-(methylsulfonyl)benzamide] |
| 3.91 µM | CS(=O)(=O)NC(=O)c1cc(Cl)c(Oc2ccccc2Cl)cc1F [Example 300, 5-chloro-4-(2-chlorophenoxy)-2-fluoro-N-(methylsulfonyl)benzamide] |
| 61.7 µM | COc1ccc(Oc2cc(F)c(C(=O)NS(C)(=O)=O)cc2Cl)cc1 [Example 301, 5-chloro-2-fluoro-4-(4-methoxyphenoxy)-N-(methylsulfonyl)benzamide] |
| > 323 µM | CS(=O)(=O)NC(=O)c1cc(F)c(Oc2ccccc2C#N)cc1F [Example 327, 4-(2-cyanophenoxy)-2,5-difluoro-N-(methylsulfonyl)benzamide] |
